Experimental data from paper PMC8657793, “Synthesis, In Vitro and In Silico Anticancer Activity of New 4-Methylbenzamide Derivatives Containing 2,6-Substituted Purines as Potential Protein Kinases Inhibitors” (International Journal of Molecular Sciences, 2021).

Experiments:
[1] = tested on: HepG2 (human liver cancer); assay: MTT anti-proliferative assay, HepG2; type: cell-based; conditions: 48 h
Experimental: (§1) To determine the selectivity of the synthesized compounds 7–16 toward various cancer cells and normal human cells, the anti-proliferative activity against K562 (chronic myelogenous leukemia), HL-60 (promyelocytic leukemia), MCF-7 (breast adenocarcinoma), HeLa (cervix carcinoma), HepG2 (human liver cancer), A549 (lung carcinoma), OKP-GS (renal cell carcinoma), and normal cells RPMI 1788 (B lymphocyte, the human cell line) was investigated.
(§2) Each in vitro experiment was performed at least in triplicate and the standard deviation of absorbance was less than 10% of the mean. For the in vitro assays, a stock solution (1% DMSO in the appropriate buffer with the tested compound diluted under sonication) was prepared from which several dilutions were made with the appropriate buffer.
(§3) Human cell lines were obtained from the Institute of Cytology, Russian Academy of Sciences. The cell lines studied were maintained in RPMI 1640 medium (AppliChem, Darmstadt, Germany) supplemented with 20% (HL-60, RPMI 1788) fetal calf serum (HyClone, Cramlington, UK), in DMEM (A 549) and Eagle’s MEM (AppliChem) (MCF7, HeLa) with 10% fetal calf serum (HyClone). Cells were cultivated at 37 °C in a humidified atmosphere of 5% CO2. Cellular sensitivities to synthesized compounds and standards were measured with the MTT assay. Cells were plated in triplicate in 96-well plates (10^5 cells/well for suspended cell cultures and 5 × 10^3 cells/well for monolayer cultures); on the same day (suspended cell cultures) or on the following day (monolayer cultures), compounds were added at the appropriate dilutions. Anti-proliferative activity was studied at concentrations 0.1–50.0 µM. The reference drugs were imatinib, sorafenib and nilotinib. Plates were incubated under standard conditions for 48 h. Thereafter, 10 μL MTT (Sigma) in phosphate-buffered saline (5 mg/mL) was added. The plates were incubated for an additional 4 h and 150 μL dimethylsulphoxide (DMSO) was added to dissolve the formazan crystals. The optical density was read on a HALO MPR-95 Microplate Reader (Dynamica Scientific Ltd., Melbourne, Victoria, Australia) at 570 nm. The antiproliferative effects were taken as degrees of inhibition of tumor cells (%). The average of three parallel measurements was calculated for each concentration of test compound. The degree of cell growth suppression was plotted as a function of the logarithm of the concentration. The half maximal inhibitory concentration (IC50) was determined graphically for active compounds.

[2] = tested on: RPMI 1788 (B lymphocyte, normal human lymphoblastoid cells); assay: MTT assay on normal cells RPMI 1788; type: cell-based
Experimental: as §1, §2
as §3, with “Anti-proliferative activity was studied at concentrations 0.1–50.0 µM.” left out

[3] = molecular target: T1, PDGFRα (Homo sapiens, UniProt P16234); assay: Kinase Selectivity Profiling System TK-1 / ADP-Glo, PDGFRα; type: biochemical
T1 construct: purchased Promega
T1 sequence (P16234 24-1089): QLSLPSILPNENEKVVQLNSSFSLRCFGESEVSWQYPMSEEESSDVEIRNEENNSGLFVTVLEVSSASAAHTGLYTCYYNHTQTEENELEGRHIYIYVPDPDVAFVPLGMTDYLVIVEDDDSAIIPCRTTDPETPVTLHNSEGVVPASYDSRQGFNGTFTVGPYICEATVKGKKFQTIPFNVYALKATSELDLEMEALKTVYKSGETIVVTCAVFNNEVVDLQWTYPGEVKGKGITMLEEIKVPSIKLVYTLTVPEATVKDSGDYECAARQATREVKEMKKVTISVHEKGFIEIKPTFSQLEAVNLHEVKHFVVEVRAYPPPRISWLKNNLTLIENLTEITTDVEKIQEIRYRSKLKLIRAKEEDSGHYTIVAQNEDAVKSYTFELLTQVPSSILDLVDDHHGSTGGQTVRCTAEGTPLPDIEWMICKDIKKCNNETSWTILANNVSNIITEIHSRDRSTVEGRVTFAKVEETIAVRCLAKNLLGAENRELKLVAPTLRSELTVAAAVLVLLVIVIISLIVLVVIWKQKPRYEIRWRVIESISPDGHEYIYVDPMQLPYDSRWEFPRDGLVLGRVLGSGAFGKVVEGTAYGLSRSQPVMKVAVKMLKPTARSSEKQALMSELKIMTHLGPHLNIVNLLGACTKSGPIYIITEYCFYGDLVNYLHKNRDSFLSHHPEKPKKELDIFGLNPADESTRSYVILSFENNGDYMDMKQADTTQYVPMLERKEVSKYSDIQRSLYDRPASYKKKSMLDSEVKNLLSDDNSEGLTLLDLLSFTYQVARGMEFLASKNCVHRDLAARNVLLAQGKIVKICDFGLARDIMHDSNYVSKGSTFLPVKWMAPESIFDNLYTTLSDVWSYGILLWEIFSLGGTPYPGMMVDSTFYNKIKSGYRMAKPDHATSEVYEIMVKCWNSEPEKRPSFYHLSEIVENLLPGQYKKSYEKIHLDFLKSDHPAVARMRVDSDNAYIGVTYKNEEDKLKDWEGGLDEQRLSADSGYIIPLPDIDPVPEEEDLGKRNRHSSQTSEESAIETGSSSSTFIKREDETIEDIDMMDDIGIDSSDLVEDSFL
Description: Considering the presence of a purine ring in the compounds under study, type 1 binding to protein kinases could be expected. We investigated the kinase selectivity of targeted compounds 7–16 against eight receptor tyrosine kinases including EGFR, HER2 and HER4 (epidermal growth factor receptors), IGF1R (insulin-like growth factor 1 receptor), InsR (insulin receptor), KDR (vascular endothelial growth factor receptor 2—VEGFR-2), and PDGFRα and PDGFRβ (platelet-derived growth factor receptors). The assay was performed using the Kinase Selectivity Profiling System TK-1 (Promega, Madison, WI, USA) and ADP-Glo™ Kinase assay kit (Promega, Madison, WI, USA). Kinase activity was measured by quantifying the […] following a kinase reaction. Enzymatic activity inhibition percentage caused by studied compounds was evaluated at the single concentration of 1 μM.
The Abl1 inhibitory activity assay was performed using Abl1 Kinase Enzyme System (Promega, Madison, WI, USA) and ADP-Glo™ Kinase assay kit (Promega, Madison, WI, USA) according to the Technical Manual. The general procedure was as follows: kinase (2.5 ng/reaction) was incubated with substrate (1 μg), compound (0.5 and 10µM) and ATP (50 μM) in a commercial buffer solution with a reaction volume of 5 μL. In every experiment, no-enzyme and no-compound control reactions were included to represent background luminescence (0% activity) and uninhibited kinase activity (100% activity), respectively. The assay 384-well plate was incubated at room temperature for 1 h. Afterwards, 5μL of ADP-Glo reagent was added into each well to stop the reaction and consume the […] within 40 min. At the end, 10 μL of kinase detection reagent was added into the well and incubated for 30 min to produce a luminescence signal. Kinase activity assays were performed in triplicate at each inhibitor concentration. The luminescence was measured with the help of a Tecan Infinite M200 Plate Reader. The luminescence data were analyzed using the computer software, Magellan™. Percent kinase activity (KA) was calculated by subtracting the average no-enzyme control luminescence values from all kinase-containing reactions with or without compound, then converting these net luminescence values to percent activity based on the no-compound control reactions representing 100% kinase activity. Inhibition (I, %) was calculated as 100%-KA.
The single-dose screening of kinase selectivity was performed using Kinase Selectivity Profiling System TK-1 (Promega, Madison, WI, USA) and ADP-Glo™ Kinase assay kit (Promega, Madison, WI, USA) according to Technical Manual. Kinase Selectivity Profiling System TK-1 includes a set of kinases from the tyrosine kinase family (EGFR, HER2, HER4, IGF1R, InsR, KDR, PDGFα, PDGFβ) in 8-tube strip format. The general procedure was as follow: kinase working stock (2 µL/reaction) was incubated with ATP/substrate working stock (1 µL) and compound (1 µM) in a commercial buffer solution with a reaction volume of 5 μL. The reaction conditions and inhibition (%) calculation were the same as in Section 3.3.1. Kinase activity assays were performed in duplicate at each inhibitor.

[4] = tested on: MCF-7 (breast adenocarcinoma); assay: MTT anti-proliferative assay, MCF-7; type: cell-based; conditions: Homo sapiens, MCF7, 48 h
Experimental: as §1, §2, §3

With `O=C(Nc1cccc(C(F)(F)F)c1)c1ccc(Cn2cnc3c(Cl)nc(Cl)nc32)cc1` [Compound 7, 4-((2,6-Dichloro-9H-purin-9-yl)methyl)-N-(3-(trifluoromethyl)phenyl)benzamide] the IC50 [1] was 11.3 ± 1.44 µM, the inhibition at 100 µM [2] was 98.9% and the inhibition at 1 µM [3] was 40%. For the same compound, the IC50 [4] was 12.3 ± 4.07 µM.
Work on `Cc1cn(-c2cc(NC(=O)c3ccc(Cn4cnc5c(Cl)nc(Cl)nc54)cc3)cc(C(F)(F)F)c2)cn1` [Compound 10, 4-((2,6-Dichloro-9H-purin-9-yl)methyl)-N-(3-(4-methyl-1H-imidazol-1-yl)-5-(trifluoromethyl)-phenyl)benzamide] yielded an IC50 [1] of 12.7 ± 0.7 µM, an inhibition at 100 µM [2] of 98.5% and an inhibition at 1 µM [3] of 37%. For the same compound, the IC50 [4] was 8.1 ± 1.98 µM.
`COc1nc(Cl)nc2c1ncn2Cc1ccc(C(=O)Nc2cccc(C(F)(F)F)c2)cc1` [Compound 13, 4-((2-Chloro-6-methoxy-9H-purin-9-yl)methyl)-N-(3-(trifluoromethyl)phenyl)benzamide] showed an IC50 [1] of 9.16 ± 0.78 µM, an inhibition at 100 µM [2] of 100% and an inhibition at 1 µM [3] of 10%. The IC50 [4] was 14.2 ± 2.71 µM.
In the case of `COc1nc(Cl)nc2c1ncn2Cc1ccc(C(=O)Nc2cc(-n3cnc(C)c3)cc(C(F)(F)F)c2)cc1` [Compound 14, 4-((2-Chloro-6-methoxy-9H-purin-9-yl)methyl)-N-(3-(4-methyl-1H-imidazol-1-yl)-5-(trifluoromethyl)phenyl)benzamide], the IC50 [1] is reported as 28.5 ± 1.07 µM, the inhibition at 100 µM [2] is reported as 99.1% and the inhibition at 1 µM [3] is reported as 16%. The IC50 [4] was 67.4 ± 3.29 µM.
For `Nc1nc(Cl)nc2c1ncn2Cc1ccc(C(=O)Nc2cccc(C(F)(F)F)c2)cc1` [Compound 15, 4-((6-Amino-2-chloro-9H-purin-9-yl)methyl)-N-(3-(trifluoromethyl)phenyl)benzamide], the IC50 [1] was 88.3 ± 2.54 µM, the inhibition at 100 µM [2] was 93.5% and the inhibition at 1 µM [3] was 16%. For the same compound, the IC50 [4] was 76.8 ± 3.25 µM.
In the case of `CNC(=O)c1cc(Oc2ccc(NC(=O)Nc3ccc(Cl)c(C(F)(F)F)c3)cc2)ccn1` [Sorafenib, sorafenib, reference compound], the IC50 [1] is reported as 8.4 ± 2.8 µM, the inhibition at 100 µM [2] is reported as 100% and the inhibition at 1 µM [3] is reported as 98%. It also gave an IC50 [4] of 13.7 ± 3.08 µM.
